Results: US9200017B2, “Multimodal imaging of fibrin” (The General Hospital Corporation, priority 2009, dated 2015)

System: Thrombus
Experiment: MR-PET imaging in a rabbit model of occlusive arterial thrombus
Format: in vivo
Conditions: i.v., MR angiogram with gadofosveset
Procedure: The occlusive thrombus model was similar to the one described above. Briefly, a male New Zealand white rabbit (2.5 kg) was sedated with a mixture of ketamine and xylazine and anaesthetized with isoflurane (1-2% in 70% N2O and 30% O2) and body temperature was kept at 37.5° C. A day old autologous blood clot was injected into the right internal carotid artery (ICA). The femoral vein was cannulated for intravenous delivery of the imaging agents. Simultaneous PET and MR were acquired on a clinical 3T MRI-BrainPET scanner using a home-built receive surface coil and a CP transmit coil. After baseline MR scans were acquired, the compound 21 was administered at a dose of […]. The blood pool MR contrast agent gadofosveset was injected at a dose of 0.1 mmol Gd/kg to acquire an angiographic image.

For Gd3-EP-2104R-Cu [Compound 21], the “PET signal at occluded right internal carotid artery” value was “hyperintense PET signal in the right internal carotid (ICA)”.
